Measurements reported in ChEMBL document CHEMBL3885881, “DrugMatrix”.

Species on record: Rattus norvegicus
Experiment: DrugMatrix - Regimen: Daily Repeat
Assay type: toxicity, organism-based, Sprague-Dawley
Set-up: regimen Daily Repeat, gender Male, age 6-8 weeks
Conditions: in vivo, po, route oral GAVAGE, vehicle .5 % CMC; for ABSOLUTE BASOPHIL / ABSOLUTE EOSINOPHIL / ABSOLUTE LYMPHOCYTE / ABSOLUTE MONOCYTE / ABSOLUTE SEGMENTED NEUTROPHIL / BASOPHIL / EOSINOPHIL / ERYTHROCYTE COUNT / HEMATOCRIT / HEMOGLOBIN / LEUKOCYTE COUNT / LYMPHOCYTE / MEAN CORPUSCULAR HEMOGLOBIN / MEAN CORPUSCULAR HEMOGLOBIN CONCENTRATION / MEAN CORPUSCULAR VOLUME / MONOCYTE / NEUTROPHIL / NUCLEATED RED BLOOD CELLS / PLATELET COUNT: tissue Blood; for ALANINE AMINOTRANSFERASE / ALBUMIN / ALKALINE PHOSPHATASE / ASPARTATE AMINOTRANSFERASE / BLOOD UREA NITROGEN / CARBON DIOXIDE / CHLORIDE / CHOLESTEROL / CREATINE PHOSPHOKINASE / CREATININE / GLUCOSE / LACTATE DEHYDROGENASE / LIPASE / PHOSPHORUS / POTASSIUM / SODIUM / TOTAL BILIRUBIN / TOTAL PROTEIN / URIC ACID: tissue Plasma
[1] = 88 mg/kg, 72 h, dose level Low, time 3 day
[2] = 88 mg/kg, 120 h, dose level Low, time 5 day
[3] = 1500 mg/kg, 72 h, dose level High, time 3 day
[4] = 1500 mg/kg, 120 h, dose level High, time 5 day

NC(=O)c1cnccn1 [PYRAZINAMIDE]
ABSOLUTE BASOPHIL [1]: 0 CELLS/uL
ABSOLUTE EOSINOPHIL [1]: 30.67 CELLS/uL
ABSOLUTE LYMPHOCYTE [1]: 12250.33 CELLS/uL
ABSOLUTE MONOCYTE [1]: 470.67 CELLS/uL
ABSOLUTE SEGMENTED NEUTROPHIL [1]: 1315 CELLS/uL
BASOPHIL [1]: 0%
EOSINOPHIL [1]: 0.33%
ERYTHROCYTE COUNT [1]: 5.55 x10E6/uL
HEMATOCRIT [1]: 35.93%
HEMOGLOBIN [1]: 13.4 G/DL
LEUKOCYTE COUNT [1]: 14.07 x10E3/uL
LYMPHOCYTE [1]: 87%
MEAN CORPUSCULAR HEMOGLOBIN [1]: 24.2 pg
MEAN CORPUSCULAR HEMOGLOBIN CONCENTRATION [1]: 37.27 G/DL
MEAN CORPUSCULAR VOLUME [1]: 64.83 fL
MONOCYTE [1]: 3%
NEUTROPHIL [1]: 9.67%
NUCLEATED RED BLOOD CELLS [1]: 0 /100WBC
PLATELET COUNT [1]: 1204.33 x10E3/uL
ALANINE AMINOTRANSFERASE [1]: 44.33 u/L
ALBUMIN [1]: 4.73 G/DL
ALKALINE PHOSPHATASE [1]: 375 u/L
ASPARTATE AMINOTRANSFERASE [1]: 85.33 u/L
BLOOD UREA NITROGEN [1]: 14.67 mg/dL
CARBON DIOXIDE [1]: 22.67 mmol/L
CHLORIDE [1]: 102.67 MEQ/L
CHOLESTEROL [1]: 74.33 mg/dL
CREATINE PHOSPHOKINASE [1]: 282.33 u/L
CREATININE [1]: 0.22 mg/dL
GLUCOSE [1]: 147 mg/dL
LACTATE DEHYDROGENASE [1]: 427 u/L
LIPASE [1]: 10 u/L
PHOSPHORUS [1]: 12.4 mg/dL
POTASSIUM [1]: 7.05 MEQ/L
SODIUM [1]: 145.67 MEQ/L
TOTAL BILIRUBIN [1]: 0.27 mg/dL
TOTAL PROTEIN [1]: 5.97 G/DL
URIC ACID [1]: 2.43 mg/dL
ABSOLUTE BASOPHIL [2]: 0 CELLS/uL
ABSOLUTE EOSINOPHIL [2]: 154 CELLS/uL
ABSOLUTE LYMPHOCYTE [2]: 11236 CELLS/uL
ABSOLUTE MONOCYTE [2]: 491 CELLS/uL
ABSOLUTE SEGMENTED NEUTROPHIL [2]: 1385.67 CELLS/uL
BASOPHIL [2]: 0%
EOSINOPHIL [2]: 1%
ERYTHROCYTE COUNT [2]: 5.75 x10E6/uL
HEMATOCRIT [2]: 35.9%
HEMOGLOBIN [2]: 13.43 G/DL
LEUKOCYTE COUNT [2]: 13.27 x10E3/uL
LYMPHOCYTE [2]: 85%
MEAN CORPUSCULAR HEMOGLOBIN [2]: 23.4 pg
MEAN CORPUSCULAR HEMOGLOBIN CONCENTRATION [2]: 37.47 G/DL
MEAN CORPUSCULAR VOLUME [2]: 62.43 fL
MONOCYTE [2]: 3.67%
NEUTROPHIL [2]: 10.33%
NUCLEATED RED BLOOD CELLS [2]: 0.33 /100WBC
PLATELET COUNT [2]: 1159.33 x10E3/uL
ALANINE AMINOTRANSFERASE [2]: 36 u/L
ALBUMIN [2]: 4.27 G/DL
ALKALINE PHOSPHATASE [2]: 325.33 u/L
ASPARTATE AMINOTRANSFERASE [2]: 95.33 u/L
BLOOD UREA NITROGEN [2]: 20 mg/dL
CARBON DIOXIDE [2]: 24 mmol/L
CHLORIDE [2]: 108.33 MEQ/L
CHOLESTEROL [2]: 66 mg/dL
CREATINE PHOSPHOKINASE [2]: 516 u/L
CREATININE [2]: 0.22 mg/dL
GLUCOSE [2]: 133.67 mg/dL
LACTATE DEHYDROGENASE [2]: 846.33 u/L
LIPASE [2]: 9 u/L
PHOSPHORUS [2]: 11.63 mg/dL
POTASSIUM [2]: 5.99 MEQ/L
SODIUM [2]: 145.83 MEQ/L
TOTAL BILIRUBIN [2]: 0.13 mg/dL
TOTAL PROTEIN [2]: 6.07 G/DL
URIC ACID [2]: 1.4 mg/dL
ABSOLUTE BASOPHIL [3]: 0 CELLS/uL
ABSOLUTE EOSINOPHIL [3]: 133 CELLS/uL
ABSOLUTE LYMPHOCYTE [3]: 8872.33 CELLS/uL
ABSOLUTE MONOCYTE [3]: 166.33 CELLS/uL
ABSOLUTE SEGMENTED NEUTROPHIL [3]: 1061.67 CELLS/uL
BASOPHIL [3]: 0%
EOSINOPHIL [3]: 1.33%
ERYTHROCYTE COUNT [3]: 5.4 x10E6/uL
HEMATOCRIT [3]: 35.87%
HEMOGLOBIN [3]: 13.37 G/DL
LEUKOCYTE COUNT [3]: 10.23 x10E3/uL
LYMPHOCYTE [3]: 86.67%
MEAN CORPUSCULAR HEMOGLOBIN [3]: 24.8 pg
MEAN CORPUSCULAR HEMOGLOBIN CONCENTRATION [3]: 37.33 G/DL
MEAN CORPUSCULAR VOLUME [3]: 66.4 fL
MONOCYTE [3]: 1.67%
NEUTROPHIL [3]: 10.33%
NUCLEATED RED BLOOD CELLS [3]: 0 /100WBC
PLATELET COUNT [3]: 1418.67 x10E3/uL
ALANINE AMINOTRANSFERASE [3]: 48.33 u/L
ALBUMIN [3]: 4.13 G/DL
ALKALINE PHOSPHATASE [3]: 315.67 u/L
ASPARTATE AMINOTRANSFERASE [3]: 85.67 u/L
BLOOD UREA NITROGEN [3]: 16.67 mg/dL
CARBON DIOXIDE [3]: 28 mmol/L
CHLORIDE [3]: 103.33 MEQ/L
CHOLESTEROL [3]: 73 mg/dL
CREATINE PHOSPHOKINASE [3]: 136.33 u/L
CREATININE [3]: 0.15 mg/dL
GLUCOSE [3]: 153 mg/dL
LACTATE DEHYDROGENASE [3]: 76 u/L
LIPASE [3]: 9 u/L
PHOSPHORUS [3]: 10.47 mg/dL
POTASSIUM [3]: 5.73 MEQ/L
SODIUM [3]: 146 MEQ/L
TOTAL BILIRUBIN [3]: 0.23 mg/dL
TOTAL PROTEIN [3]: 5.77 G/DL
URIC ACID [3]: 1.47 mg/dL
ABSOLUTE BASOPHIL [4]: 0 CELLS/uL
ABSOLUTE EOSINOPHIL [4]: 88 CELLS/uL
ABSOLUTE LYMPHOCYTE [4]: 11940 CELLS/uL
ABSOLUTE MONOCYTE [4]: 519 CELLS/uL
ABSOLUTE SEGMENTED NEUTROPHIL [4]: 1353 CELLS/uL
BASOPHIL [4]: 0%
EOSINOPHIL [4]: 0.67%
ERYTHROCYTE COUNT [4]: 6.59 x10E6/uL
HEMATOCRIT [4]: 40.1%
HEMOGLOBIN [4]: 14.83 G/DL
LEUKOCYTE COUNT [4]: 13.9 x10E3/uL
LYMPHOCYTE [4]: 86%
MEAN CORPUSCULAR HEMOGLOBIN [4]: 22.5 pg
MEAN CORPUSCULAR HEMOGLOBIN CONCENTRATION [4]: 37.03 G/DL
MEAN CORPUSCULAR VOLUME [4]: 60.83 fL
MONOCYTE [4]: 3.67%
NEUTROPHIL [4]: 9.67%
NUCLEATED RED BLOOD CELLS [4]: 0 /100WBC
PLATELET COUNT [4]: 1142.67 x10E3/uL
ALANINE AMINOTRANSFERASE [4]: 56.33 u/L
ALBUMIN [4]: 4.53 G/DL
ALKALINE PHOSPHATASE [4]: 308 u/L
ASPARTATE AMINOTRANSFERASE [4]: 93.33 u/L
BLOOD UREA NITROGEN [4]: 16.67 mg/dL
CARBON DIOXIDE [4]: 25.33 mmol/L
CHLORIDE [4]: 104.5 MEQ/L
CHOLESTEROL [4]: 70.67 mg/dL
CREATINE PHOSPHOKINASE [4]: 254.33 u/L
CREATININE [4]: 0.17 mg/dL
GLUCOSE [4]: 185.67 mg/dL
LACTATE DEHYDROGENASE [4]: 177.33 u/L
LIPASE [4]: 9 u/L
PHOSPHORUS [4]: 12.47 mg/dL
POTASSIUM [4]: 5.72 MEQ/L
SODIUM [4]: 147.8 MEQ/L
TOTAL BILIRUBIN [4]: 0.2 mg/dL
TOTAL PROTEIN [4]: 6.07 G/DL
URIC ACID [4]: 1.37 mg/dL
